Measured values from publication PMC2637359 (Journal of cardiovascular pharmacology, 2008).

Legend:
[1] = Plasma cholesterol levels in ApoE -/- mice; assay type: in vivo, mouse; details: AEPU-treated ApoE -/- mice
[2] = AEPU metabolism in rat liver S9 fraction; assay type: in vitro ADME
[3] = biological target: T1, purified murine sEH recombinant enzyme (Mus musculus, UniProt P34914); experiment: sEH activity fluorescent assay; assay type: biochemical
T1 sequence (P34914 1-554): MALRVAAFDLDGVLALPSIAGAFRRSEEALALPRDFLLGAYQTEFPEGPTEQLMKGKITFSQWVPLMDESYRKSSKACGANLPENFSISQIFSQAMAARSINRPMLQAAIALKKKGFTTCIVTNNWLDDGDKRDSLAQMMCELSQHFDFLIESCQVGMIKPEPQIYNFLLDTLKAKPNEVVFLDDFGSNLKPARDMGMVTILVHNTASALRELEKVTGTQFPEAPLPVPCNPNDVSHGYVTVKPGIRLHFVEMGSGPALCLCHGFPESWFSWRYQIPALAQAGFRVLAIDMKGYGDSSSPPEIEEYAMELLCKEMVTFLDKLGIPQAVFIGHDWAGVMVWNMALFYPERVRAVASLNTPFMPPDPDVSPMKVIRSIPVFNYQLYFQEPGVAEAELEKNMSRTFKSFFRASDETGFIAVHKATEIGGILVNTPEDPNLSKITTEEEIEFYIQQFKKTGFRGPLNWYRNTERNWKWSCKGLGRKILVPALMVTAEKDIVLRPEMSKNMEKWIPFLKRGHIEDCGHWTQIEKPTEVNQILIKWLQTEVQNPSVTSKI

[4] = Single oral dose pharmacokinetic study in mice; assay type: in vivo, mouse; details: AEPU by oral gavage 10 mg/kg, over 24 hours
[5] = in vivo; details: ApoE -/-, mouse, plasma, oral, 90 µg/ml in drinking water

With `CCOCCOCCOCCCCCNC(=O)NC12CC3CC(CC(C3)C1)C2` [AEPU, 1-adamantan-3-(5-(2-(2-ethylethoxy)ethoxy)pentyl)urea] the Plasma cholesterol level ([1]; control 2.5±0.6 mM) was 2.5 ± 0.9 mM, the Plasma cholesterol level ([1]; control 96.2±23.1 mg/dl) was 96.2 ± 34.6 mg/dL and the “Metabolism in the absence of NADPH” value ([2]; rat S9 liver preparation without NADPH) was “no metabolism”. For the same compound, the “AEPU remaining in the mixture” value ([2]; rat liver S9 2.5 mg/mL, NADPH generating system, AEPU 10 µM, 60 min) was “less than 10%”.

Compound `O=C(NCCCCCOCCOCCOCCO)NC12CC3CC(CC(C3)C1)C2` [Compound 975, 1-adamantan-1-yl-3-(5-{2-[2-(2-hydroxy-ethoxy)-ethoxy]-ethoxy}-pentyl)-urea] has an IC50 [3] of 4.7 ± 0.7 nM.

With `CCOCCOCCOCCCCCNC(=O)NC12CC3CC(CC(O)(C3)C1)C2` [Compound 1010, 1-{5-[2-(2-ethoxyethoxy)-ethoxy]-pentyl}-3-(3-hydroxy-adamantan-1-yl)-urea] the “times more abundant in the plasma than AEPU” value [4] was “roughly 5,000 times”, the IC50 [3] was 78 ± 19 nM and the “fold less potent on the enzyme than AEPU” value ([3]; murine sEH) was 28 fold. For the same compound, the concentration at 8 weeks [5] was 565 nM.
